Results from US9522947B2, “Peptidomimetic macrocycles” (Aileron Therapeutics, Inc., priority 2011, dated 2016).
Positions of bridges follow the written chain, without caps; N, C: chain ends. Non-standard residues stand in square brackets, D forms with d. Residues, ends and D or L forms follow the SMILES beside them. R8 = C=CCCCCCC[C@@](C)(N)C(=O)O; S5 = C=CCCC[C@](C)(N)C(=O)O; Nle = CCCC[C@H](N)C(=O)O

Assays:
Figure 9 = assay: Figure 9
Description: Table printed on a drawing sheet, Figure 9
Footnotes: ** literature values
First reader's note: The Tesamorelin rows are literature values, and their species, dose and route are printed inside the label cell.

growth hormone = assay: Plasma PD study in rats: growth hormone production/release; format: in vivo, Sprague-Dawley rats; conditions: FIG. 10
Method: Five peptidomimetic macrocycles of the invention (SP-1, SP-6, SP-8, SP-21, SP-32), as well as sermorelin, were studied to determine pharmacokinetic and pharmacodynamic parameters in rats. Male Sprague-Dawley rats (300 g, non-fasted, cannulated) were used. The study had three arms: IV administration, SC administration, and SC administration (vehicle control). For experiments using sermorelin, a dose level of 3 mg/kg IV/SC bolus was used (dose volume of 3 mL/kg dose and dose concentration of 1 mg/mL). The vehicle used was: 10 wt % N, N-Dimethylacetamide, 10 wt % DMSO, 2 wt % Solutol HS 15 in water for injection containing 45 mg/mL (4.5 wt %) Mannitol and 25 mM (0.38 wt %) Histidine (pH 7.5; 320 mOsm/kg). The peptide was first dissolved at high concentration in DMA and DMSO before a second dilution in Solutol vehicle.
For experiments using peptidomimetic macrocycles, 0.1 mL of DMA and 0.1 mL of DMSO were used to combine with each mg of macrocycle (˜4.3-4.5 mg of macrocycle used in each experiment). Sonication was used to ensure complete solubilization. 0.8 mL of Solutol vehicle was used for each mg of macrocycle in DMA/DMSO. The solutions were mixed gently with pipet or light vortexing. Fresh vials were used for each day of dosing, and macrocycles were stored solid at −20° C. prior to formulation. […]

[1] = cited from earlier work

Compound	AUCinf | (Figure 9) [ng·h/mL]	Clp | (Figure 9) [mL/min/kg]	MRT | hr (Figure 9) [h]	Vdss | (Figure 9) [L/kg]	t 1/2 | hr (Figure 9) [h]	stimulation of growth hormone production (growth hormone)	half-life of GHRH after intravenous injection [1] [h]
CCCC[C@H](NC(=O)[C@@H](NC(=O)[C@H](CC(=O)O)NC(=O)[C@H](CCC(N)=O)NC(=O)[C@H](CC(C)C)NC(=O)[C@]1(C)CCCC=CCCCCCC[C@@](C)(NC(=O)[C@H](CC(C)C)NC(=O)[C@@H](NC(=O)[C@H](CCCCN)NC(=O)[C@H](CCCNC(=N)N)NC(=O)[C@H](Cc2ccc(O)cc2)NC(=O)[C@H](CO)NC(=O)[C@]2(C)CCCC=CCCC[C@](C)(NC(=O)[C@H](CC(=O)O)NC(=O)[C@@H](C)NC(=O)[C@@H](N)Cc3ccc(O)cc3)C(=O)N[C@@H]([C@@H](C)CC)C(=O)N[C@@H](Cc3ccccc3)C(=O)N[C@@H]([C@@H](C)O)C(=O)N2)C(C)C)C(=O)N[C@@H](CCC(N)=O)C(=O)N[C@@H](CC(C)C)C(=O)N[C@@H](CO)C(=O)N[C@@H](C)C(=O)N[C@@H](CCCNC(=N)N)C(=O)N[C@@H](CCCCN)C(=O)N1)[C@@H](C)CC)C(=O)N[C@@H](CO)C(=O)N[C@@H](CCCNC(=N)N)C(N)=O [SP-6] (H-Y[dA]D[S5]IFT[S5]SYRKVL[R8]QLSARK[S5]LQDI[Nle]SR-NH2; staple 4-8, 15-22)	23477	2.13	3.7	0.474	20.6		
CCCC[C@@H]1NC(=O)[C@H]([C@@H](C)CC)NC(=O)[C@H](CC(=O)O)NC(=O)[C@H](CCC(N)=O)NC(=O)[C@H](CC(C)C)NC(=O)[C@H](CC(C)C)NC(=O)[C@](C)(NC(=O)[C@H](CCCNC(=N)N)NC(=O)[C@H](C)NC(=O)[C@H](CO)NC(=O)[C@H](CC(C)C)NC(=O)[C@H](CCC(N)=O)NC(=O)CNC(=O)[C@H](CC(C)C)NC(=O)[C@@H](NC(=O)[C@H](CCCCN)NC(=O)[C@H](CCCNC(=N)N)NC(=O)[C@H](Cc2ccc(O)cc2)NC(=O)[C@H](CO)NC(=O)[C@]2(C)CCCC=CCCC[C@](C)(NC(=O)[C@H](CC(=O)O)NC(=O)[C@@H](C)NC(=O)[C@@H](N)Cc3ccc(O)cc3)C(=O)N[C@@H]([C@@H](C)CC)C(=O)N[C@@H](Cc3ccccc3)C(=O)N[C@@H]([C@@H](C)O)C(=O)N2)C(C)C)CCCCCCC=CCCC[C@@](C)(C(=O)N[C@@H](CCCNC(=N)N)C(N)=O)NC1=O [SP-8] (H-Y[dA]D[S5]IFT[S5]SYRKVLGQLSAR[R8]LLQDI[Nle][S5]R-NH2; staple 4-8, 21-28)						stimulation of growth hormone production	
CCCC[C@H](NC(=O)[C@@H](NC(=O)[C@]1(C)CCCC=CCCC[C@](C)(NC(=O)[C@H](CCCNC(=N)N)NC(=O)[C@H](C)NC(=O)[C@H](CO)NC(=O)[C@H](CC(C)C)NC(=O)[C@H](CCC(N)=O)NC(=O)CNC(=O)[C@H](CC(C)C)NC(=O)[C@@H](NC(=O)[C@]2(C)CCCC=CCCCCCC[C@@](C)(NC(=O)[C@H](C)NC(=O)[C@H](CC(=O)O)NC(=O)[C@@H](C)NC(=O)[C@@H](N)Cc3ccc(O)cc3)C(=O)N[C@@H](Cc3ccccc3)C(=O)N[C@@H]([C@@H](C)O)C(=O)N[C@@H](CC(N)=O)C(=O)N[C@@H](CO)C(=O)N[C@@H](Cc3ccc(O)cc3)C(=O)N[C@@H](CCCNC(=N)N)C(=O)N2)C(C)C)C(=O)N[C@@H](CC(C)C)C(=O)N[C@@H](CC(C)C)C(=O)N[C@@H](CCC(N)=O)C(=O)N1)[C@@H](C)CC)C(=O)N[C@@H](CO)C(=O)N[C@@H](CCCNC(=N)N)C(N)=O [SP-21] (H-Y[dA]DA[R8]FTNSYR[S5]VLGQLSAR[S5]LLQ[S5]I[Nle]SR-NH2; staple 5-12, 21-25)		1.65	5.3	0.524	10.1		
CCCC[C@H](NC(=O)[C@@H](NC(=O)[C@H](CC(=O)O)NC(=O)[C@H](CCC(N)=O)NC(=O)[C@H](CC(C)C)NC(=O)[C@H](CC(C)C)NC(=O)[C@H](CCCCN)NC(=O)[C@H](CCCNC(=N)N)NC(=O)[C@]1(C)CCCC=CCCCCCC[C@@](C)(NC(=O)[C@H](CCCNC(=N)N)NC(=O)[C@H](Cc2ccc(O)cc2)NC(=O)[C@H](CO)NC(=O)[C@H](CC(N)=O)NC(=O)[C@@H](NC(=O)[C@H](Cc2ccccc2)NC(=O)[C@@H](NC(=O)[C@H](C)NC(=O)[C@H](CC(=O)O)NC(=O)[C@@H](C)NC(=O)[C@@H](N)Cc2ccc(O)cc2)[C@@H](C)CC)[C@@H](C)O)C(=O)N[C@@H](C(C)C)C(=O)N[C@@H](CC(C)C)C(=O)NCC(=O)N[C@@H](CCC(N)=O)C(=O)N[C@@H](CC(C)C)C(=O)N[C@@H](CO)C(=O)N1)[C@@H](C)CC)C(=O)N[C@@H](CO)C(=O)N[C@@H](CCCNC(=N)N)C(N)=O [SP-32] (H-Y[dA]DAIFTNSYR[R8]VLGQLS[S5]RKLLQDI[Nle]SR-NH2; staple 12-19)		1.35	2.3	0.19	9.7		
CC/C=C/CC(=O)N[C@@H](Cc1ccc(O)cc1)C(=O)N[C@@H](C)C(=O)N[C@@H](CC(=O)O)C(=O)N[C@@H](C)C(=O)N[C@H](C(=O)N[C@@H](Cc1ccccc1)C(=O)N[C@H](C(=O)N[C@@H](CC(N)=O)C(=O)N[C@@H](CO)C(=O)N[C@@H](Cc1ccc(O)cc1)C(=O)N[C@@H](CCCNC(=N)N)C(=O)N[C@@H](CCCCN)C(=O)N[C@H](C(=O)N[C@@H](CC(C)C)C(=O)NCC(=O)N[C@@H](CCC(N)=O)C(=O)N[C@@H](CC(C)C)C(=O)N[C@@H](CO)C(=O)N[C@@H](C)C(=O)N[C@@H](CCCNC(=N)N)C(=O)N[C@@H](CCCCN)C(=O)N[C@@H](CC(C)C)C(=O)N[C@@H](CC(C)C)C(=O)N[C@@H](CCC(N)=O)C(=O)N[C@@H](CC(=O)O)C(=O)N[C@H](C(=O)N[C@@H](CCSC)C(=O)N[C@@H](CO)C(=O)N[C@@H](CCCNC(=N)N)C(=O)N[C@@H](CCC(N)=O)C(=O)N[C@@H](CCC(N)=O)C(=O)NCC(=O)N[C@@H](CCC(=O)O)C(=O)N[C@@H](CO)C(=O)N[C@@H](CC(N)=O)C(=O)N[C@@H](CCC(N)=O)C(=O)N[C@@H](CCC(=O)O)C(=O)N[C@@H](CCCNC(=N)N)C(=O)NCC(=O)N[C@@H](C)C(=O)N[C@@H](CCCNC(=N)N)C(=O)N[C@@H](C)C(=O)N[C@@H](CCCNC(=N)N)C(=O)N[C@@H](CC(C)C)C(N)=O)[C@@H](C)CC)C(C)C)[C@@H](C)O)[C@@H](C)CC [Tesamorelin, dog 0.1 µg/kg IV**]	5301				0.4		
GHRH: Human GHRH (Growth Hormone-Releasing Hormone), a 44-amino-acid peptide							0.167 to 0.2
